Test results: patent publication US20250262192A1, “PROGNOSTIC PATHWAYS FOR HIGH RISK SEPSIS PATIENTS” (KONINKLIJKE PHILIPS N.V., priority 2021, published 2025)
Several values for one entry are separate records, joined by “and”; a condition that tells them apart may be missing. Equal entries are not always repeated.

Tests used:
[1] = tested on: AR cellular signaling pathway; test: THP-1 cells cultured 24 hrs with LPS, then DHT or AR inhibitor (FIG. 35, Table 7); pathway analysis; assay type: cell-based
Method: (§1) FIG. 35 Schematic overview of AR inhibitor experiment. Depicts the experimental setup to determine if AR inhibitors can be used to mitigate the effect of LPS on monocytes (THP-1 cells). […] In a parallel experiment, THP-1 cells are first cultured for 24 hours with LPS, after which the medium is changed and the cells are cultured with one of ARCC-4, ARD-266, A-458 and bicalutamide.
(§2) FIG. 35 describes the experimental set-up used. […] In a parallel experiment, THP-1 cells are first cultured for 24 hours with LPS, after which the medium is changed and the cells are cultured with one of ARCC-4, ARD-266, A-458 and bicalutamide.
All experimental conditions were subjected to cellular signaling pathways analysis.

[2] = tested on: TGFbeta cellular signaling pathway; test: as above; assay type: cell-based
Method: as §1, §2
As expected the remaining AR inhibitors were not able to mitigate the effect of LPS on TGFbeta cellular signaling pathway activity.
AR and TGFbeta pathways are functional in monocytic cells (Table 7).

[3] = tested on: TGFbeta cellular signaling pathway; test: THP-1 sepsis prevention model, qPCR-based STP activity score; assay type: cell-based
TGFBeta pathway [4] = test: THP-1 cell line stimulated with LPS or DHT and inhibited with Bicalutamide or Enzalutamide (Table 9A); assay type: cell-based
Method: (§3) LPS is considered the main mediator of the sepsis symptoms. An in vitro experiment was designed where monocytes were stimulated with LPS and subsequently treated with a variety of inhibitors. […] 26 Aug.
(§4) After stimulation cells were harvested and RNA was extracted using the RNeasy mini kit (Qiagen, 74104). qPCR-based STP activity scores were calculated using the Philips Research OncoSignal platform (www.philips.com/oncosignal), as described herein.

AR pathway [5] = test: as above; assay type: cell-based
Method: as §3, §4

TGFBeta pathway [6] = test: MOLT-4 lymphoid cell line stimulated with LPS or DHT and inhibited with Bicalutamide or Enzalutamide (Table 9B); assay type: cell-based
Method: (§5) MOLT-4 (ATCC CRL-1582) were cultured in RPMI1640 media, supplemented with 10% FBS, 1% glutamax and 1% pen strep at 37° C. 5% CO2.
as §4

AR pathway [7] = test: as above; assay type: cell-based; conditions: stimulated 5 hours and subsequently inhibited
Method: as §5, §4

[8] = tested on: AR cellular signaling pathway; test: THP-1 sepsis prevention model, qPCR-based STP activity score; assay type: cell-based
[9] = tested on: HH (Hedgehog) cellular signaling pathway; assay type: cell-based
Method: as §1, §2

[10] = tested on: ER cellular signaling pathway; assay type: cell-based
Method: as §1, §2

TGFbeta pathway [11] = test: PBMCs of sepsis patients treated in vitro 24 hours with inhibitors, pathway activity score; assay type: cell-based, human; parameters: scale not given here; conditions: EXP 2, individual patient samples, Resatorvid 10 uM, D4-abiraterone 10 uM, A-485 100 nM, Galunisertib 10 uM
Method: (§6) PBMC samples from healthy volunteers and sepsis patients were obtained via Tissue solutions. Briefly, cryopreserved PBMCs were first washed with washing buffer (PBS/1% BSA/2 mM EDTA), centrifuged and pellet resuspended in culture medium (RPM11640 without phenol red+8.5% charcoal stripped FBS+1% Glx+1% p/s). 0.5·10^5-1·10^6 cells were seeded per well in 24 wells plate and rested for 1 hour before treatment experiment. 10 PBMC samples from healthy donors were used to; (1) measure the baseline pathway levels, (2) activate with LPS
(§7) Sepsis treatment model: PBMC derived from sepsis patients (n=20) were treated 24 hours with compounds, DMSO or combination of compounds. (PBMC from healthy and sepsis patients are originating from the same hospital to minimize bias in sample prep). After stimulation cells were harvested and RNA was extracted using the RNeasy mini kit (Qiagen, 74104). qPCR was performed using the Philips Research OncoSignal platform.
(§8) In total 18 PBMCs sepsis samples were treated for 24 hours with selected inhibitors (and combinations), 6 patient samples per experiment.

AR pathway [12] = test: as above; assay type: cell-based, human; parameters: AR Pathway activity scores of sepsis PBMC patients: scale not given here; conditions: EXP 2, individual patient samples, Resatorvid 10 uM, D4-abiraterone 10 uM, A-485 100 nM, Galunisertib 10 uM
Method: as §6, §7, §8

[13] = 24 hrs 25 uM Bicalutamide or DMSO, then 24 hrs DHT
[14] = DHT (25 nM) alone or + Bicalutamide (5 uM) or Enzalutamide (5 uM)
[15] = THP-1, 24 hours LPS, medium changed, then inhibitor
[16] = 24 hrs 25 uM Bicalutamide or DMSO, then 24 hrs LPS
[17] = 24 hrs 25 uM Bicalutamide, then 24 hrs PBS
[18] = THP-1, DHT (25 nM) alone or + Bicalutamide (5 uM) or Enzalutamide (5 uM), stimulated 5 hours and subsequently inhibited
[19] = THP-1, LPS (50 ng/mL) alone or + Bicalutamide (5 uM) or Enzalutamide (5 uM), stimulated 5 hours and subsequently inhibited

## C[C@]12CC[C@H]3[C@@H](CCC4=CC(=O)CC[C@@]43C)[C@@H]1CC[C@@H]2O [Testosterone]
[1]; THP-1 cells
  AR pathway activity, ligand stimulation: induced activity

## C[C@]12CCC(=O)C[C@@H]1CC[C@@H]1[C@@H]2CC[C@]2(C)[C@@H](O)CC[C@@H]12 [DHT, dihydrotestosterone]
[1]
  AR cellular signaling pathway activity, effect of stimulus (FIG. 36): increase
[2]
  TGFbeta signaling activity, effect of stimulus (FIG. 39): did not increase
[3]; [13]
  Average TGFbeta STP score: 1.27 normalized scores
TGFBeta pathway [4]
  TGFbeta STP activity: 12.9 normalized scores
AR pathway [5]
  AR STP activity: 8.7 normalized scores
TGFBeta pathway [6]
  TGFbeta STP activity: 14.1 normalized scores
AR pathway [7]; [14]
  AR STP activity: 7.5 normalized scores
[8]; [13]
  Average AR STP score: 6.13 normalized scores
[9]
  HH cellular signaling pathway activity (FIG. 38): not substantially affected
[10]
  ER cellular signaling pathway activity (FIG. 37): not substantially affected

## CNC(=O)Nc1ccc2c(c1)CC[C@@]21OC(=O)N(CC(=O)N(Cc2ccc(F)cc2)[C@@H](C)C(F)(F)F)C1=O [A-485]
[1]; [15]
  LPS induced AR activity after addition of inhibitor (FIG. 36): reduction of AR activity
TGFbeta pathway [11]
  TGFbeta Pathway activity scores of sepsis PBMC patients: 28 and 33 and 35
[2]; [15]
  LPS induced TGFbeta activity after addition of inhibitor (FIG. 39): reduction of LPS induced TGFbeta activity
AR pathway [12]
  AR Pathway activity scores of sepsis PBMC patients: 24 and 27 and 25

## CC(O)(CS(=O)(=O)c1ccc(F)cc1)C(=O)Nc1ccc(C#N)c(C(F)(F)F)c1 (stereo not drawn) [Bicalutamide]
[3]; [13]
  Average TGFbeta STP score: 1.04 normalized scores
[3]; [16]
  Average TGFbeta STP score: 9.78 normalized scores
[3]; [17]
  Average TGFbeta STP score: 1.25 normalized scores
TGFBeta pathway [4]; [18]
  TGFbeta STP activity: 15.6 normalized scores
TGFBeta pathway [4]; [19]
  TGFbeta STP activity: 34.6 normalized scores
AR pathway [5]; [18]
  AR STP activity: 6.7 normalized scores
AR pathway [5]; [19]
  AR STP activity: 20.2 normalized scores
TGFBeta pathway [6]; MOLT-4, DHT (25 nM) alone or + Bicalutamide (5 uM) or Enzalutamide (5 uM), stimulated 5 hours and subsequently inhibited
  TGFbeta STP activity: 13.9 normalized scores
TGFBeta pathway [6]; MOLT-4, LPS (50 ng/mL) alone or + Bicalutamide (5 uM) or Enzalutamide (5 uM), stimulated 5 hours and subsequently inhibited
  TGFbeta STP activity: 14.1 normalized scores
AR pathway [7]; [14]
  AR STP activity: 7.4 normalized scores
AR pathway [7]; LPS (50 ng/mL) alone or + Bicalutamide (5 uM) or Enzalutamide (5 uM)
  AR STP activity: 7.2 normalized scores
[8]; [13]
  Average AR STP score: 3.17 normalized scores
[8]; [16]
  Average AR STP score: 12.93 normalized scores
[8]; [17]
  Average AR STP score: 2.63 normalized scores

## TGFbeta: original ligand for the TGFbeta STP added to monocytic cells
[2]; monocytic cells (THP-1)
  TGFbeta pathway activity, ligand stimulation: induced activity
